Experimental findings from article PMC5218480 (PLoS ONE, 2017) are described below.

This assay relates to MV-4-11 cells. Description: Gene expression microarray analysis (Affymetrix PrimeView) and GSEA. In kind it is cell-based, human. Particulars: MV-4-11 cells, 48 hours. Set-up: RFU PODN (11730768_x_at) / Fold change /veh PODN (11730768_x_at) / RFU LINC00158 (11744669_a_at) / Fold change /veh LINC00158 (11744669_a_at) / RFU DUSP10 (11751237_a_at) / Fold change /veh DUSP10 (11751237_a_at) / RFU ID3 (11757404_x_at) / Fold change /veh ID3 (11757404_x_at) / RFU PLEKHG5 (11737974_s_at) / Fold change /veh PLEKHG5 (11737974_s_at) / RFU LRRC4B (11730491_at) / Fold change /veh LRRC4B (11730491_at) / RFU GIMAP4 (11747438_a_at) / Fold change /veh GIMAP4 (11747438_a_at) / RFU KRT8 (11758183_x_at) / Fold change /veh KRT8 (11758183_x_at) / RFU CNN1 (11734310_a_at) / Fold change /veh CNN1 (11734310_a_at) / RFU VPS37D (11726825_at) / Fold change /veh VPS37D (11726825_at) / RFU C10orf10 (11716522_x_at) / Fold change /veh C10orf10 (11716522_x_at) / RFU KIR2DL2 /// KIR2DL4 /// KIR2DL5A /// KIR2DL5B /// KIR2DS1 /// KIR2DS2 /// KIR2DS3 /// KIR2DS4 /// KIR3DL3 /// KIR3DL3 /// KIR3DS1 (11738374_at) / Fold change /veh KIR2DL2 /// KIR2DL4 /// KIR2DL5A /// KIR2DL5B /// KIR2DS1 /// KIR2DS2 /// KIR2DS3 /// KIR2DS4 /// KIR3DL3 /// KIR3DL3 /// KIR3DS1 (11738374_at) / RFU C1QL1 (11718748_at) / Fold change /veh C1QL1 (11718748_at) / RFU TMPRSS4 (11747572_a_at) / Fold change /veh TMPRSS4 (11747572_a_at) / RFU HAMP (11756126_x_at) / Fold change /veh HAMP (11756126_x_at) / RFU RNFT2 (11725882_a_at) / Fold change /veh RNFT2 (11725882_a_at) / RFU NR4A2 (11747474_a_at) / Fold change /veh NR4A2 (11747474_a_at) / RFU ABCC12 (11746883_a_at) / Fold change /veh ABCC12 (11746883_a_at) / RFU TMEM136 (11760407_x_at) / Fold change /veh TMEM136 (11760407_x_at) / RFU CLDN22 /// WWC2 (11732394_at) / Fold change /veh CLDN22 /// WWC2 (11732394_at) / RFU HLA-DPB1 (11760878_x_at) / Fold change /veh HLA-DPB1 (11760878_x_at) / RFU SPINT1 (11716480_a_at) / Fold change /veh SPINT1 (11716480_a_at) / RFU GAP43 (11754022_s_at) / Fold change /veh GAP43 (11754022_s_at) / RFU A4GNT (11735810_at) / Fold change /veh A4GNT (11735810_at) / RFU PRB3 (11715151_x_at) / Fold change /veh PRB3 (11715151_x_at) / RFU TUBB4B (11761932_at) / Fold change /veh TUBB4B (11761932_at) / RFU CAPN14 (11732068_a_at) / Fold change /veh CAPN14 (11732068_a_at) / RFU TMCC2 (11721928_a_at) / Fold change /veh TMCC2 (11721928_a_at) / RFU IRGQ (11745062_a_at) / Fold change /veh IRGQ (11745062_a_at) / RFU FAM174B (11720279_a_at) / Fold change /veh FAM174B (11720279_a_at) / RFU TMPRSS4 (11748680_a_at) / Fold change /veh TMPRSS4 (11748680_a_at) / RFU FAM212B (11763350_a_at) / Fold change /veh FAM212B (11763350_a_at) / RFU PLEKHG5 (11743358_a_at) / Fold change /veh PLEKHG5 (11743358_a_at) / RFU ZSCAN30 (11745921_a_at) / Fold change /veh ZSCAN30 (11745921_a_at) / RFU CMKLR1 (11741424_a_at) / Fold change /veh CMKLR1 (11741424_a_at) / RFU LOC101060620 /// MAPK8IP1 (11723275_at) / Fold change /veh LOC101060620 /// MAPK8IP1 (11723275_at) / RFU SPTSSB (11747773_x_at) / Fold change /veh SPTSSB (11747773_x_at) / RFU PRSS12 (11739890_at) / Fold change /veh PRSS12 (11739890_at) / RFU BIN1 (11741810_x_at) / Fold change /veh BIN1 (11741810_x_at) / RFU WNT11 (11732464_a_at) / Fold change /veh WNT11 (11732464_a_at) / RFU C10orf10 (11716521_a_at) / Fold change /veh C10orf10 (11716521_a_at) / RFU C5orf56 (11738089_at) / Fold change /veh C5orf56 (11738089_at) / RFU CYB561 (11721691_x_at) / Fold change /veh CYB561 (11721691_x_at) / RFU ANKRD19P (11752326_a_at) / Fold change /veh ANKRD19P (11752326_a_at) / RFU OR2T12 /// OR2T33 /// OR2T8 (11738714_s_at) / Fold change /veh OR2T12 /// OR2T33 /// OR2T8 (11738714_s_at) / RFU VCAN (11748164_a_at) / Fold change /veh VCAN (11748164_a_at) / RFU JSRP1 (11732532_at) / Fold change /veh JSRP1 (11732532_at) / RFU KRTAP10-11 (11738290_x_at) / Fold change /veh KRTAP10-11 (11738290_x_at) / RFU MYO3A (11730013_a_at) / Fold change /veh MYO3A (11730013_a_at) / RFU EBF3 (11725865_a_at) / Fold change /veh EBF3 (11725865_a_at) / RFU CAMK2N1 (11719241_x_at) / Fold change /veh CAMK2N1 (11719241_x_at) / RFU C5orf56 (11738088_a_at) / Fold change /veh C5orf56 (11738088_a_at) / RFU OLFML3 (11715873_a_at) / Fold change /veh OLFML3 (11715873_a_at) / RFU LOC100653217 /// NTM (11731650_a_at) / Fold change /veh LOC100653217 /// NTM (11731650_a_at) / RFU MAPK11 (11762145_a_at) / Fold change /veh MAPK11 (11762145_a_at) / RFU FIZ1 (11724087_x_at) / Fold change /veh FIZ1 (11724087_x_at) / RFU OASL (11726364_x_at) / Fold change /veh OASL (11726364_x_at) / RFU SOX15 (11748057_x_at) / Fold change /veh SOX15 (11748057_x_at) / RFU CD79A (11719716_a_at) / Fold change /veh CD79A (11719716_a_at) / RFU HIST1H1D (11736915_at) / Fold change /veh HIST1H1D (11736915_at) / RFU CASKIN2 (11723855_a_at) / Fold change /veh CASKIN2 (11723855_a_at) / RFU LOC730098 (11760151_x_at) / Fold change /veh LOC730098 (11760151_x_at) / RFU OR4N2 (11742367_at) / Fold change /veh OR4N2 (11742367_at) / RFU PRRT2 (11749266_a_at) / Fold change /veh PRRT2 (11749266_a_at) / RFU SNX32 (11753110_a_at) / Fold change /veh SNX32 (11753110_a_at) / RFU CDHR5 (11726645_a_at) / Fold change /veh CDHR5 (11726645_a_at) / RFU RCAN1 (11760418_a_at) / Fold change /veh RCAN1 (11760418_a_at) / RFU FAM167A (11723789_a_at) / Fold change /veh FAM167A (11723789_a_at) / RFU FAM26E (11764081_at) / Fold change /veh FAM26E (11764081_at) / RFU ISYNA1 (11749810_s_at) / Fold change /veh ISYNA1 (11749810_s_at) / RFU ACY1 (11761880_at) / Fold change /veh ACY1 (11761880_at) / RFU 11764098_at / Fold change /veh 11764098_at / RFU SAMD14 (11745864_x_at) / Fold change /veh SAMD14 (11745864_x_at) / RFU NPB (11741838_a_at) / Fold change /veh NPB (11741838_a_at) / RFU TMPRSS6 (11731388_a_at) / Fold change /veh TMPRSS6 (11731388_a_at) / RFU KRTAP10-2 (11738614_at) / Fold change /veh KRTAP10-2 (11738614_at) / RFU ARHGAP8 /// PRR5-ARHGAP8 (11727945_x_at) / Fold change /veh ARHGAP8 /// PRR5-ARHGAP8 (11727945_x_at) / RFU KRTAP5-7 /// NADSYN1 (11734609_at) / Fold change /veh KRTAP5-7 /// NADSYN1 (11734609_at) / RFU RASL12 (11751679_a_at) / Fold change /veh RASL12 (11751679_a_at) / RFU CDKN2B (11736163_a_at) / Fold change /veh CDKN2B (11736163_a_at) / RFU PRF1 (11729649_at) / Fold change /veh PRF1 (11729649_at) / RFU, ZNF638 /// ZNF638-IT1 / Fold change vs veh, ZNF638 /// ZNF638-IT1 / RFU, PANK3 / Fold change vs veh, PANK3 / RFU, SH3YL1 / Fold change vs veh, SH3YL1 / RFU, ZEB2 / Fold change vs veh, ZEB2 / RFU, NRIP1 / Fold change vs veh, NRIP1 / RFU, PTTG1IP / Fold change vs veh, PTTG1IP / RFU, CAPN2 / Fold change vs veh, CAPN2 / RFU, MED14 / Fold change vs veh, MED14 / RFU, SNORA58 / Fold change vs veh, SNORA58 / RFU, C1orf63 / Fold change vs veh, C1orf63 / RFU, LRRFIP1 / Fold change vs veh, LRRFIP1 / RFU, NDUFAF7 / Fold change vs veh, NDUFAF7 / RFU, SLC12A2 / Fold change vs veh, SLC12A2 / RFU, IBTK / Fold change vs veh, IBTK / RFU, ESF1 / Fold change vs veh, ESF1 / Fold change vs veh, TMEM50B / RFU, TAOK1 / Fold change vs veh, TAOK1 / RFU, ACBD3 / Fold change vs veh, ACBD3 / RFU, TMA16 / Fold change vs veh, TMA16 / RFU, RWDD3 / Fold change vs veh, RWDD3 / RFU, BCAT1 / Fold change vs veh, BCAT1 / RFU, EDEM3 / Fold change vs veh, EDEM3 / RFU, TMEM33 / Fold change vs veh, TMEM33 / RFU, WDR75 / Fold change vs veh, WDR75 / RFU, AHCTF1 / Fold change vs veh, AHCTF1 / RFU, TFRC / Fold change vs veh, TFRC / RFU, ZDHHC17 / Fold change vs veh, ZDHHC17 / RFU, NOM1 / Fold change vs veh, NOM1 / RFU, ARL8B / Fold change vs veh, ARL8B / RFU, ZBTB11 / Fold change vs veh, ZBTB11 / RFU, TAMM41 / Fold change vs veh, TAMM41 / RFU, KIAA1704 /// LOC100996395 / Fold change vs veh, KIAA1704 /// LOC100996395 / RFU, ING1 / Fold change vs veh, ING1 / RFU, TRMT61B / Fold change vs veh, TRMT61B / RFU, FUBP3 / Fold change vs veh, FUBP3 / RFU, TP53 / Fold change vs veh, TP53 / RFU, TNKS2 / Fold change vs veh, TNKS2 / RFU, ZFP14 / Fold change vs veh, ZFP14 / RFU, ACTR2 / Fold change vs veh, ACTR2 / RFU, PPP3R1 / Fold change vs veh, PPP3R1 / RFU, PIK3R1 / Fold change vs veh, PIK3R1 / RFU, HNRNPA1 / Fold change vs veh, HNRNPA1 / RFU, RNF170 / Fold change vs veh, RNF170 / RFU, ZNF28 / Fold change vs veh, ZNF28 / RFU, RNGTT / Fold change vs veh, RNGTT / RFU, OGT / Fold change vs veh, OGT / RFU, BRD1 / Fold change vs veh, BRD1 / RFU, MARS / Fold change vs veh, MARS / RFU, ZNF655 / Fold change vs veh, ZNF655 / RFU, FAHD1 / Fold change vs veh, FAHD1 / RFU, BDP1 / Fold change vs veh, BDP1 / RFU, LRRCC1 / Fold change vs veh, LRRCC1 / RFU, ARID1A / Fold change vs veh, ARID1A / RFU, ZNF146 / Fold change vs veh, ZNF146 / RFU, ZNF330 / Fold change vs veh, ZNF330 / RFU, GPN3 / Fold change vs veh, GPN3 / RFU, C9orf123 / Fold change vs veh, C9orf123 / RFU, N4BP2L2 / Fold change vs veh, N4BP2L2 / RFU, ARFIP1 / Fold change vs veh, ARFIP1 / RFU, FAM179B / Fold change vs veh, FAM179B / RFU, BCL10 / Fold change vs veh, BCL10 / RFU, UHRF1BP1L / Fold change vs veh, UHRF1BP1L / RFU, BET1 / Fold change vs veh, BET1 / RFU, CNOT2 / Fold change vs veh, CNOT2 / RFU, ZNF268 / Fold change vs veh, ZNF268 / Fold change vs veh, ZNF507 / RFU, DGCR2 / Fold change vs veh, DGCR2 / RFU, WDSUB1 / Fold change vs veh, WDSUB1 / Fold change vs veh, HSP90B1 /// MIR3652 / RFU, ADSS / Fold change vs veh, ADSS / RFU, GK / Fold change vs veh, GK / RFU, ZNF148 / Fold change vs veh, ZNF148 / RFU, TAF9 / Fold change vs veh, TAF9 / RFU, SLC1A5 / Fold change vs veh, SLC1A5 / RFU, SLMO2 / Fold change vs veh, SLMO2 / RFU, ABCC4 / Fold change vs veh, ABCC4 / RFU, LOC101060439 /// RAP1B / Fold change vs veh, LOC101060439 /// RAP1B / RFU, RFX7 / Fold change vs veh, RFX7 / RFU, GTPBP10 / Fold change vs veh, GTPBP10 / RFU, CNEP1R1 / Fold change vs veh, CNEP1R1 / RFU, BIVM-ERCC5 /// ERCC5 / Fold change vs veh, BIVM-ERCC5 /// ERCC5 / RFU, ILF3 / Fold change vs veh, ILF3 / RFU 11762660_at / Fold change /veh 11762660_at / RFU VCAN (11757783_s_at) / Fold change /veh VCAN (11757783_s_at) / RFU DDX43 (11728927_at) / Fold change /veh DDX43 (11728927_at) / RFU KRT8 (11758188_x_at) / Fold change /veh KRT8 (11758188_x_at) / RFU NKD1 (11759106_at) / Fold change /veh NKD1 (11759106_at) / RFU SRD5A1 (11742802_a_at) / Fold change /veh SRD5A1 (11742802_a_at) / RFU TPSAB1 /// TPSB2 (11721975_s_at) / Fold change /veh TPSAB1 /// TPSB2 (11721975_s_at) / RFU GSTM3 (11746129_a_at) / Fold change /veh GSTM3 (11746129_a_at) / RFU IL23R (11737362_x_at) / Fold change /veh IL23R (11737362_x_at) / RFU TMEM51 (11727254_a_at) / Fold change /veh TMEM51 (11727254_a_at) / RFU PIWIL2 (11732686_x_at) / Fold change /veh PIWIL2 (11732686_x_at) / RFU ORM1 (11744905_x_at) / Fold change /veh ORM1 (11744905_x_at) / RFU CCDC152 (11743942_at) / Fold change /veh CCDC152 (11743942_at) / RFU ECM1 (11717891_a_at) / Fold change /veh ECM1 (11717891_a_at) / RFU IL23R (11748794_a_at) / Fold change /veh IL23R (11748794_a_at) / RFU TNFAIP8L3 (11732012_x_at) / Fold change /veh TNFAIP8L3 (11732012_x_at) / RFU MBOAT4 (11741988_at) / Fold change /veh MBOAT4 (11741988_at) / RFU 11764193_at / Fold change /veh 11764193_at / RFU TMEM53 (11763286_at) / Fold change /veh TMEM53 (11763286_at) / RFU MAGEB2 (11727129_at) / Fold change /veh MAGEB2 (11727129_at) / RFU TMEM200A (11744735_a_at) / Fold change /veh TMEM200A (11744735_a_at) / RFU CCDC152 (11751479_a_at) / Fold change /veh CCDC152 (11751479_a_at) / RFU FAM211A (11726209_a_at) / Fold change /veh FAM211A (11726209_a_at) / RFU RGS16 (11746705_a_at) / Fold change /veh RGS16 (11746705_a_at) / RFU VCAN (11755009_s_at) / Fold change /veh VCAN (11755009_s_at) / RFU RHOB (11743442_s_at) / Fold change /veh RHOB (11743442_s_at) / RFU RGS16 (11720943_a_at) / Fold change /veh RGS16 (11720943_a_at) / RFU RGS16 (11720944_at) / Fold change /veh RGS16 (11720944_at) / RFU, VPS4B / Fold change vs veh, VPS4B / RFU, CREB1 / Fold change vs veh, CREB1 / RFU, DNAJC13 / Fold change vs veh, DNAJC13 / RFU, GNAQ / Fold change vs veh, GNAQ / RFU, CDK5R1 / Fold change vs veh, CDK5R1 / RFU, ZRANB3 / Fold change vs veh, ZRANB3 / RFU, CUL4A / Fold change vs veh, CUL4A / RFU, CCNY / Fold change vs veh, CCNY / RFU, UFL1 / Fold change vs veh, UFL1 / RFU, COG3 / Fold change vs veh, COG3 / RFU, DIAPH2 / Fold change vs veh, DIAPH2 / RFU, SKA2 / Fold change vs veh, SKA2 / RFU, AFF3 / Fold change vs veh, AFF3 / RFU, LMF1 / Fold change vs veh, LMF1 / RFU, IPO11 / Fold change vs veh, IPO11 / RFU, DFFB / Fold change vs veh, DFFB / RFU, FOXP1 / Fold change vs veh, FOXP1 / RFU, CARD8 / Fold change vs veh, CARD8 / RFU, STRN3 / Fold change vs veh, STRN3 / RFU, ADK / Fold change vs veh, ADK / RFU, RASSF2 / Fold change vs veh, RASSF2 / RFU, WIPF1 / Fold change vs veh, WIPF1 / RFU, LARP1B / Fold change vs veh, LARP1B / RFU, RASA1 / Fold change vs veh, RASA1 / RFU, RB1 / Fold change vs veh, RB1 / RFU, PPFIA1 / Fold change vs veh, PPFIA1 / RFU, MAT2A / Fold change vs veh, MAT2A / RFU, CCT5 / Fold change vs veh, CCT5 / RFU, WDR92 / Fold change vs veh, WDR92 / RFU, CUX1 / Fold change vs veh, CUX1 / RFU, TTC7A / Fold change vs veh, TTC7A / RFU, TMEM135 / Fold change vs veh, TMEM135 / RFU, DEPTOR / Fold change vs veh, DEPTOR / RFU, CPM / Fold change vs veh, CPM / RFU, DNAJB6 / Fold change vs veh, DNAJB6 / RFU, CACNA2D3 / Fold change vs veh, CACNA2D3 / RFU, DTX4 / Fold change vs veh, DTX4 / RFU, TFCP2 / Fold change vs veh, TFCP2 / RFU, GMCL1 /// GMCL1P1 / Fold change vs veh, GMCL1 /// GMCL1P1 / RFU, AEBP2 / Fold change vs veh, AEBP2 / RFU, SNHG1 /// SNORD22 /// SNORD25 /// SNORD26 /// SNORD27 /// SNORD28 /// SNORD29 /// SNORD31 / Fold change vs veh, SNHG1 /// SNORD22 /// SNORD25 /// SNORD26 /// SNORD27 /// SNORD28 /// SNORD29 /// SNORD31 / Fold change (Aza/veh), C12orf56 (ProbeSet 11735607_a_at) / Fold change (ACY-1035/veh), C12orf56 (ProbeSet 11735607_a_at) / Fold change (Aza/veh), FGFR1OP (ProbeSet 11751329_s_at) / Fold change (ACY-1035/veh), FGFR1OP (ProbeSet 11751329_s_at) / Fold change (Aza/veh), VPS36 (ProbeSet 11739960_a_at) / Fold change (ACY-1035/veh), VPS36 (ProbeSet 11739960_a_at) / RFU SYPL1 (11715823_x_at) / Fold change /veh SYPL1 (11715823_x_at) / RFU IGFBP7 (11715501_s_at) / Fold change /veh IGFBP7 (11715501_s_at) / RFU REEP3 (11722064_at) / Fold change /veh REEP3 (11722064_at) / RFU IGLL1 (11728026_x_at) / Fold change /veh IGLL1 (11728026_x_at): dose or concentration left out as unconfirmed.

For the compound `Nc1ccc(-c2cccs2)cc1NC(=O)c1ccc2c(c1)cc(C1CC1)n2CCN1CCOCC1` [ACY-1035], the “RFU CLDN22 /// WWC2 (11732394_at)” value is recorded as 8.03 RFU.
